Test results taken from patent US5399785A, “Tyrosinase activity inhibitor” (Nippon Paint Co., Ltd., priority 1992, dated 1995).
pIC50: −log10 of the molar value.

How the values were obtained:
tyrosinase (Sigma Co.) = test: Measurement of tyrosinase activity inhibition (L-DOPA substrate, absorbance at 417 nm); format: biochemical; conditions: substrate 2 mM L-DOPA, phosphate-potassium buffer pH 6.8, tyrosinase 0.5 mg/ml, absorbance 417 nm; read-out: IC50, concentration of tyrosinase activity inhibitor when the tyrosinase activity inhibition (%) is 50%
Procedure: The measurement was conducted by the following method.
The reaction reagent used are as follows:
Substrate: 2 mM L-DOPA (Wako Junyaku Co.)
Buffer: 0.1 mM phosphate-potassium solution (pH 6.8)
Inhibitor: 1% solution of the compound of the formula (I), 4-ethylresorcinol, compound of the formula (II), 5-methylresorcinol and compound of the formula (III), 6,6'-di-n-propyl-2,2',4,4'-tetrahydroxydiphenylmethane
Enzyme: tyrosinase (Sigma Co.), 0.5 mg/ml
(2) Measurement of tyrosinase activity inhibition %
In the case of measuring tyrosinase activity inhibition %, a sample solution (No.1 to No.3) was prepared in a spectrophotometric cell (1 ml), by mixing each ingredient in the following formulation shown in Table 1. […]
Formulation of sample solution (ml)
An enzyme solution (0.20 ml) was added to the cell. Three minutes later, the measurement of temporal changes of an absorbance (417 nm) by means of a spectrophotometer had started. The inhibition % was calculated based on the following equation:
Inhibition %=[1-(Ab.3-Ab.1/Ab.2-Ab.1)]×100

[1] = prior-art statement, no test described; cited from earlier work
tyrosinase = conditions: as described in Japanese Patent Kokai No. 4-169515; cited from earlier work

Structure (SMILES) | pIC50 (tyrosinase (Sigma Co.)) | further results
CCCc1cc(O)cc(O)c1Cc1c(O)cc(O)cc1CCC [Example 3, 6,6'-di-n-propyl-2,2',4,4'-tetrahydroxydiphenylmethane] | 4.60 | –
OC[C@H]1O[C@@H](Oc2ccc(O)cc2)[C@H](O)[C@@H](O)[C@@H]1O [arbutin] | – | toxicity [1]: has toxicity
CCCCCCCc1ccc(O)cc1O [drawing 4 n-Heptyl] | 6.15 | –
CCCc1ccc(O)cc1O [drawing 4 n-Propyl] | 6.05 | –
CCc1cc(O)cc(O)c1 [drawing 5 Ethyl] | 3.15 | –
CCCCCCCc1cc(O)cc(O)c1 [drawing 5 n-Heptyl] | 3.70 | –
CCCCCCCCCc1cc(O)cc(O)c1 [drawing 5 n-Nonyl] | 3.70 | –
CCCCCc1cc(O)cc(O)c1 [drawing 5 n-Pentyl] | 3.70 | –
CCCc1cc(O)cc(O)c1 [drawing 5 n-Propyl] | 3.30 | –
NC[C@H]1CC[C@H](C(=O)O)CC1 [tranexamic acid] | – | tyrosinase activity inhibition effect (tyrosinase): low tyrosinase activity inhibition effect

Continued, in another order:

pIC50 (tyrosinase (Sigma Co.)) | Structure (SMILES) | further results
5.70 | CCc1ccc(O)cc1O [drawing 4 Ethyl, 4-ethylresorcinol] | –
5.10 | Cc1ccc(O)cc1O [drawing 4 Methyl] | –
6.05 | CCCCCCCCCc1ccc(O)cc1O [drawing 4 n-Nonyl] | –
6.10 | CCCCCc1ccc(O)cc1O [drawing 4 n-Pentyl] | –
2.30 | Cc1cc(O)cc(O)c1 [drawing 5 Methyl, 5-methylresorcinol] | –
